In BindingDB's records for doi:10.1021/jm00003a019 (Research Triangle Institute, 1995):

Assay: Binding affinity at Sigma receptor type 1, displacement of [3H](+)-pentazocine from guinea pig brain membranes

With C[C@@H]1[C@@H]2Cc3ccc(O)cc3[C@@]1(C)CCN2Cc1ccc(C#N)cc1 [4-((2S,6S,11S)-8-Hydroxy-6,11-dimethyl-1,2,5,6-tetrahydro-4H-2,6-methano-benzo[d]azocin-3-ylmethyl)-benzonitrile] as the compound, how does the Ki read?
Its Ki is 1.53 nM.

For C[C@@H]1[C@@H]2Cc3ccc(O)cc3[C@@]1(C)CCN2Cc1ccccc1F [(2S,6S,11S)-3-(2-Fluoro-benzyl)-6,11-dimethyl-1,2,3,4,5,6-hexahydro-2,6-methano-benzo[d]azocin-8-ol], which Ki is on record?
Its Ki is 1.45 nM.

With C[C@@H]1[C@@H]2Cc3ccc(O)cc3[C@@]1(C)CCN2Cc1ccccc1I [(2S,6S,11S)-3-(2-Iodo-benzyl)-6,11-dimethyl-1,2,3,4,5,6-hexahydro-2,6-methano-benzo[d]azocin-8-ol] as the compound, how does the Ki read?
Its Ki is 930 nM.

With C[C@@H]1[C@@H]2Cc3ccc(O)cc3[C@@]1(C)CCN2Cc1cccc(I)c1 [(2S,6S,11S)-3-(3-Iodo-benzyl)-6,11-dimethyl-1,2,3,4,5,6-hexahydro-2,6-methano-benzo[d]azocin-8-ol] as the compound, how does the Ki read?
The Ki was 27.2 nM.

For C[C@@H]1[C@@H]2Cc3ccc(O)cc3[C@@]1(C)CCN2Cc1ccc(N)cc1 [(2S,6S,11S)-3-(4-Amino-benzyl)-6,11-dimethyl-1,2,3,4,5,6-hexahydro-2,6-methano-benzo[d]azocin-8-ol], which Ki is on record?
Its Ki is 16.8 nM.

With C[C@@H]1[C@@H]2Cc3ccc(O)cc3[C@@]1(C)CCN2Cc1ccc(Br)cc1 [(2S,6S,11S)-3-(4-Bromo-benzyl)-6,11-dimethyl-1,2,3,4,5,6-hexahydro-2,6-methano-benzo[d]azocin-8-ol] as the compound, how does the Ki read?
The Ki was 3.11 nM.

Which Ki does the source give for C[C@@H]1[C@@H]2Cc3ccc(O)cc3[C@@]1(C)CCN2Cc1ccc(Cl)cc1 [(2S,6S,11S)-3-(4-Chloro-benzyl)-6,11-dimethyl-1,2,3,4,5,6-hexahydro-2,6-methano-benzo[d]azocin-8-ol] here?
Its Ki is 2.37 nM.

With C[C@@H]1[C@@H]2Cc3ccc(O)cc3[C@@]1(C)CCN2Cc1ccc(N(C)C)cc1 [(2S,6S,11S)-3-(4-Dimethylamino-benzyl)-6,11-dimethyl-1,2,3,4,5,6-hexahydro-2,6-methano-benzo[d]azocin-8-ol] as the compound, how does the Ki read?
Its Ki is 102 nM.

Which Ki does the source give for C[C@@H]1[C@@H]2Cc3ccc(O)cc3[C@@]1(C)CCN2Cc1ccc(F)cc1 [(2S,6S,11S)-3-(4-Fluoro-benzyl)-6,11-dimethyl-1,2,3,4,5,6-hexahydro-2,6-methano-benzo[d]azocin-8-ol] here?
The Ki was 0.97 nM.

Which Ki does the source give for C[C@@H]1[C@@H]2Cc3ccc(O)cc3[C@@]1(C)CCN2Cc1ccc(I)c([N+](=O)[O-])c1 [(2S,6S,11S)-3-(4-Iodo-3-nitro-benzyl)-6,11-dimethyl-1,2,3,4,5,6-hexahydro-2,6-methano-benzo[d]azocin-8-ol] here?
Its Ki is 386 nM.

Which Ki does the source give for C[C@@H]1[C@@H]2Cc3ccc(O)cc3[C@@]1(C)CCN2Cc1ccc(I)cc1 [(2S,6S,11S)-3-(4-Iodo-benzyl)-6,11-dimethyl-1,2,3,4,5,6-hexahydro-2,6-methano-benzo[d]azocin-8-ol] here?
Its Ki is 16.5 nM.

With COc1ccc(CN2CC[C@]3(C)c4cc(O)ccc4C[C@H]2[C@H]3C)cc1 [(2S,6S,11S)-3-(4-Methoxy-benzyl)-6,11-dimethyl-1,2,3,4,5,6-hexahydro-2,6-methano-benzo[d]azocin-8-ol] as the compound, how does the Ki read?
Its Ki is 2.89 nM.

Which Ki does the source give for C[C@@H]1[C@@H]2Cc3ccc(O)cc3[C@@]1(C)CCN2Cc1ccc(C(C)(C)C)cc1 [(2S,6S,11S)-3-(4-tert-Butyl-benzyl)-6,11-dimethyl-1,2,3,4,5,6-hexahydro-2,6-methano-benzo[d]azocin-8-ol] here?
The Ki was 1070 nM.

Which Ki does the source give for Cc1ccccc1CN1CC[C@]2(C)c3cc(O)ccc3C[C@H]1[C@H]2C [(2S,6S,11S)-6,11-Dimethyl-3-(2-methyl-benzyl)-1,2,3,4,5,6-hexahydro-2,6-methano-benzo[d]azocin-8-ol] here?
Its Ki is 12.8 nM.

For Cc1ccc(CN2CC[C@]3(C)c4cc(O)ccc4C[C@H]2[C@H]3C)cc1 [(2S,6S,11S)-6,11-Dimethyl-3-(4-methyl-benzyl)-1,2,3,4,5,6-hexahydro-2,6-methano-benzo[d]azocin-8-ol], which Ki is on record?
Its Ki is 2.08 nM.

Which Ki does the source give for C[C@@H]1[C@@H]2Cc3ccc(O)cc3[C@@]1(C)CCN2Cc1ccc([N+](=O)[O-])cc1 [(2S,6S,11S)-6,11-Dimethyl-3-(4-nitro-benzyl)-1,2,3,4,5,6-hexahydro-2,6-methano-benzo[d]azocin-8-ol] here?
Its Ki is 2.19 nM.

With C[C@@H]1[C@@H]2Cc3ccc(O)cc3[C@@]1(C)CCN2Cc1ccc(C(F)(F)F)cc1 [(2S,6S,11S)-6,11-Dimethyl-3-(4-trifluoromethyl-benzyl)-1,2,3,4,5,6-hexahydro-2,6-methano-benzo[d]azocin-8-ol] as the compound, how does the Ki read?
The Ki was 20.5 nM.

With CC(=O)Nc1ccc(CN2CC[C@]3(C)c4cc(O)ccc4C[C@H]2[C@H]3C)cc1 [N-[4-((2S,6S,11S)-8-Hydroxy-6,11-dimethyl-1,2,5,6-tetrahydro-4H-2,6-methano-benzo[d]azocin-3-ylmethyl)-phenyl]-acetamide] as the compound, how does the Ki read?
Its Ki is 47 nM.
